Assay results reported in patent US20130338152A1, “FLUOROPHENYL BICYCLIC HETEROARYL COMPOUNDS” (IRM LLC, priority 2011, published 2013).

Target: IGF1R (Homo sapiens, UniProt P08069)
Assay: Cellular IGF-1R assay: inhibition of IGF1R phosphorylation in Hek293 cells, capture ELISA (MSD)
Format: cell-based
Parameters: expressed in transfected cells; host or cells: Hek293 (Hek293-IGF1R)
Details: IGF-triggered receptor phosphorylation
Description: IVa. Cellular IGF-1R and InsR Assays
Compound-mediated inhibition of IGF1R and INSR phosphorylation in Hek293 cells transduced with the corresponding receptors is assessed in a capture ELISA format using the MSD (Meso Scale Discovery) platform. Briefly, 30′000 cells washed and diluted in starvation medium (DMEM high glucose supplemented with 0.1% BSA) are seeded in 90 μL per well into 96-well plates pre-coated with poly-D-lysine (0.1 mg/mL in PBS/O). After 24 h incubation at 37° C. and 5% CO2, dose-response effects are determined with 3-fold serial compound dilutions, starting at 10 μM. The final vehicle concentration is 0.1% DMSO in all wells. Following pre-incubation with compounds for 1 h, receptor phosphorylation is triggered by a 10 min exposure to 1.0 ng/μL IGF for Hek293-IGF1R cells, and 5.0 ng/μL insulin for Hek293-InsR cells. Cell lysis is achieved by addition of 80 μL MSD lysis buffer per aspirated well, incubation on ice for 20 min, and a freeze-thaw cycle. Target phosphorylation is then assessed by transferring volumes corresponding to approx. 6 μg Hek293-IGF1R or 0.6 μg Hek293-InsR lysates to MSD assay plates pre-coated with total-IGF1R or total-InsR Abs, respectively. […] Immune complexes are detected by a SULFO-Tag™-coupled anti-rabbit IgG antibody in the presence of 150 μL MSD read-buffer. Light emission at 620 nm triggered by application of electric current is recorded on a MSD Sectorlmager 6000. Acquired raw data (mean Ru-ECL units) are processed in an Excel analysis template. The plate blank (MSD lysis buffer) is subtracted from all data points. The effect of a particular test compound concentration on receptor phosphorylation is expressed relative to the window defined by ligand-stimulated vs unstimulated control cells (set as 100%). IC50 values [nM] are determined using 4-parametric curve-fitting (XLfit software, V4.3.2).

IGF1R, sequence (P08069 31-1367): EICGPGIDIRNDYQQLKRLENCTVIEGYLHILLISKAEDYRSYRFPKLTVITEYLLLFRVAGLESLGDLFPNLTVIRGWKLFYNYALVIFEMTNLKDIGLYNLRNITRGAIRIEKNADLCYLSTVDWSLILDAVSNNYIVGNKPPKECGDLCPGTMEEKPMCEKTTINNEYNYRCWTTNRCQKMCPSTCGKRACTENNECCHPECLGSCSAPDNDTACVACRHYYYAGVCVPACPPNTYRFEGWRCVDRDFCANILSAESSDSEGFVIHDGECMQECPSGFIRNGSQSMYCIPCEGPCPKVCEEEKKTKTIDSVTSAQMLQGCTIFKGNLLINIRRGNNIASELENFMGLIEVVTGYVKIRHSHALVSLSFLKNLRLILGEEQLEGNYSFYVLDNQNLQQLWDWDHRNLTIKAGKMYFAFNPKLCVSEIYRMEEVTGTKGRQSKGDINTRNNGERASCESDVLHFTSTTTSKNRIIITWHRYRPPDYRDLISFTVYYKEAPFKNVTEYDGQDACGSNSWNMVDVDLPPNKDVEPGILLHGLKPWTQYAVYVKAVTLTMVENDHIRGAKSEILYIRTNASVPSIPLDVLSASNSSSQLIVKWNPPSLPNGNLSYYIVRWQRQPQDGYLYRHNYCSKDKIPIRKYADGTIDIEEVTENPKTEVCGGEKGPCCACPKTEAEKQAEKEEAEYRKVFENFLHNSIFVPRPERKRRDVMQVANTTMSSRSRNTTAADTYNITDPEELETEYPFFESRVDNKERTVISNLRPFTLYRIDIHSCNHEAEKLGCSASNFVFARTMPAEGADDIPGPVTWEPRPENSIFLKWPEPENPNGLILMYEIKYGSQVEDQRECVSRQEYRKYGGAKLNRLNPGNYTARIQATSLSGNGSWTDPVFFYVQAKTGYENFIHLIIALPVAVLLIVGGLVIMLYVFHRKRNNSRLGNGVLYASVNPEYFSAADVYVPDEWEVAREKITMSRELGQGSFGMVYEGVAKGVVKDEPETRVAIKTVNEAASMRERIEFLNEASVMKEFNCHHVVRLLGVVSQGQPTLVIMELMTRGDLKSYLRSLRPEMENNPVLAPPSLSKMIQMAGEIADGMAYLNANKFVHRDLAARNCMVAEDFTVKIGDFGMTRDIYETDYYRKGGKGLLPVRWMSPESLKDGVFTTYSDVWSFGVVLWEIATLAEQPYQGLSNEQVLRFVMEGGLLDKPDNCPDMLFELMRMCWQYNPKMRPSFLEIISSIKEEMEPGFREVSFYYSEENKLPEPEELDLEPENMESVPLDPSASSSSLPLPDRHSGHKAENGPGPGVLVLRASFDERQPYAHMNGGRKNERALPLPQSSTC

Compared with `Nc1ncnc2c1c(-c1cc(OCC3CCCO3)ccc1F)cn2[C@H]1C[C@@H](CN2CCS(=O)(=O)CC2)C1` (mixture of isomers) [Example 43, (±)-7-[cis-3-(1,1-Dioxo-1-thiomorpholin-4-ylmethyl)-cyclobutyl]-5-[2-fluoro-5-(tetrahydro-furan-2-ylmethoxy)-phenyl]-7H-pyrrolo[2,3-d]pyrimidin-4-ylamine], `Nc1ncnc2c1c(-c1cc(OC[C@@H]3CCCO3)ccc1F)cn2C1CC(CN2CCS(=O)(=O)CC2)C1` (stereo partly drawn) [Example 2, 7-[3-(1,1-Dioxo-1-thiomorpholin-4-ylmethyl)-cyclobutyl]-5-{2-fluoro-5-[(S)-1-(tetrahydro-furan-2-yl)methoxy]-phenyl}-7H-pyrrolo[2,3-d]pyrimidin-4-ylamine] is 10-fold higher in IC50: 19 nM for the first, 198 nM for the second.

Going from `CC(=O)NC[C@H]1C[C@@H](n2cc(-c3cc(OCC4CCCO4)ccc3F)c3c(N)ncnc32)C1` (mixture of isomers) [Example 56, (±)—N-(3-cis-{4-Amino-5-[2-fluoro-5-(tetrahydro-furan-2-ylmethoxy)-phenyl]-pyrrolo[2,3-d]pyrimidin-7-yl}-cyclobutylmethyl)-acetamide] to `Nc1ncnc2c1c(-c1cc(OC[C@@H]3CCCO3)ccc1F)cn2C1CC2(CNC(=O)O2)C1` (single isomer, unassigned) [Example 21], the IC50 rises from 95 nM to 215 nM (2.3-fold). The first is the more potent here.

Going from `Nc1ncnc2c1c(-c1cccc(OCC3CCO3)c1F)cn2[C@H]1C[C@@H](N2CC[S+]([O-])CC2)C1` (relative stereo) [Example 23, 5-[2-Fluoro-3-(oxetan-2-ylmethoxy)-phenyl]-7-[cis-3-(1-oxo-thiomorpholin-4-yl)-cyclobutyl]-7H-pyrrolo[2,3-d]pyrimidin-4-ylamine] to `Nc1ncnc2c1c(-c1cccc(OC[C@@H]3CCCO3)c1F)cn2[C@H]1C[C@@H](N2CC[S+]([O-])CC2)C1` [Example 12, 5-{2-Fluoro-3-[(S)-1-(tetrahydro-furan-2-yl)methoxy]-phenyl}-7-[cis-3-(1-oxo-thiomorpholin-4-yl)-cyclobutyl]-7H-pyrrolo[2,3-d]pyrimidin-4-ylamine], the IC50 falls from 452 nM to 25 nM (18-fold).

Going from `Nc1ncnc2c1c(-c1cccc(OCC3CCO3)c1F)cn2[C@H]1C[C@@H](CN2CC[S+]([O-])CC2)C1` (relative stereo) [Example 24, 5-[2-Fluoro-3-(oxetan-2-ylmethoxy)-phenyl]-7-[cis-3-(1-oxo-thiomorpholin-4-ylmethyl)-cyclobutyl]-7H-pyrrolo[2,3-d]pyrimidin-4-ylamine] to `Nc1ncnc2c1c(-c1cccc(OC[C@H]3CCCO3)c1F)cn2[C@H]1C[C@@H](CN2CC[S+]([O-])CC2)C1` [Example 5, 5-{2-Fluoro-3-[(R)-1-(tetrahydro-furan-2-yl)methoxy]-phenyl}-7-[cis-3-(1-oxo-thiomorpholin-4-ylmethyl)-cyclobutyl]-7H-pyrrolo[2,3-d]pyrimidin-4-ylamine], the IC50 falls from 368 nM to 16 nM (23-fold). The second is the more potent here.

Compared with `Nc1ncnc2c1c(-c1ccc(F)c(OCC34CCC(CC3)O4)c1)cn2[C@H]1C[C@@H](CN2CCS(=O)(=O)CC2)C1` (relative stereo) [Example 44, 7-[cis-3-(1,1-Dioxo-1-thiomorpholin-4-ylmethyl)-cyclobutyl]-5-[4-fluoro-3-(7-oxa-bicyclo[2.2.1]hept-1-ylmethoxy)-phenyl]-7H-pyrrolo[2,3-d]pyrimidin-4-ylamine], `CN1CCN(C[C@H]2C[C@@H](n3cc(-c4ccc(F)c(OCC56CCC(CC5)O6)c4)c4c(N)ncnc43)C2)CC1=O` (relative stereo) [Example 51, 4-(cis-3-{4-Amino-5-[4-fluoro-3-(7-oxa-bicyclo[2.2.1]hept-1-ylmethoxy)-phenyl]-pyrrolo[2,3-d]pyrimidin-7-yl}-cyclobutylmethyl)-1-methyl-piperazin-2-one] is 6.1-fold higher in IC50: 18 nM for the first, 110 nM for the second.

In the case of `CC(=O)N1CCN([C@H]2C[C@@H](n3cc(-c4cccc(OC[C@@H]5CCCO5)c4F)c4c(N)ncnc43)C2)CC1` [Example 9, 1-{4-[cis-3-(4-Amino-5-{2-fluoro-3-[(S)-1-(tetrahydro-furan-2-yl)methoxy]-phenyl}-pyrrolo[2,3-d]pyrimidin-7-yl)-cyclobutyl]-piperazin-1-yl}-ethanone], the IC50 is reported as 16 nM.
